Here are results for two compounds from patent publication US20110201659A1, “AGENT FOR PREVENTING OR TREATING ZOSTER-ASSOCIATED PAIN” (ASTELLAS PHARMA INC., priority 2008, published 2011).

For assay [1], the system named is herpes simplex virus (HSV) and VZV. The following applies: disclosed in Patent References 5 to 7; cited from earlier work.
For assay [2], the system named is HSV-1. The assay can be described thus: HSV-1 skin infection of hairless mice: skin lesion score and histopathology of skin, spinal cord and dorsal root ganglion. In kind it is in vivo, mouse. On the procedure: Using mice, examination was carried out on the tissue damage and nerve degeneration of the skin, spinal cord and spinal cord dorsal root ganglion by HSV-1 infection. Under ether anesthesia, right side of the dorsal part of a hairless mouse (HOS: HR-1, female, 7 weeks of age at the time of infection) was scratched with a needle, and 15 μl/mouse of an HSV-1 virus liquid was added dropwise to the scratched part to be infected. While, 15 μl/mouse of a solvent instead of the HSV-1 virus liquid was added dropwise in the pseudo-infection group. The compound to be tested (N-(2,6-dimethylphenyl)-N-(2-{[4-(1,2,4-oxadiazol-3-yl)phenyl]amino}-2-oxoethyl)tetrahydro-2H-thiopyran-4-carboxamide 1,1-dioxide: hereinafter, “compound A”) was used by dissolving in a 25% Cremophor (registered trademark) EL/25% polyethylene glycol 400 aqueous solution. By setting the administration liquid volume per one administration to 10 ml/kg, each initial administration was started one day after the HSV-1 infection. Thereafter, 50 mg/kg was repeatedly administered orally twice a day for 5 days.
The skin and spinal column (including spinal cord and dorsal root ganglion) were collected at 11 or 28 days after the infection and fixed with a 10% neutral buffer formalin liquid to prepare paraffin sections. Also, specimens of spinal cord and dorsal root ganglion were prepared on the transverse plane at the level of fourth thoracic vertebra (T4) and sixth thoracic vertebra (T6). Regarding the staining, immunohistological staining for PGP 9.5 as neurite-specific antigen was carried out on the skin sections, in addition to the hematoxylin-eosin staining (HE staining).
The skin lesions which bear resemblance to herpes zoster and are developed accompanied by HSV skin infection were classified based on the skin lesion critical degrees and systemic symptoms and scored as from 0 to 7, every day from 1 day to 28 days after the infection.
Score 1: erythema, blister or scab at local region
Score 2: erythema, blister or scab at small region
Score 3: erythema, blister or scab at middle region
Score 4: strap-like blister or scab
Score 5: erosion accompanied by ulcer at middle region
Score 6: strap-like ulcer
Score 7: death or paralysis

Assay [3] deals with HSV-1. The assay can be described thus: mouse HSV infection pain model (von Frey hair pain score, histopathology). It counts as in vivo. The text has this:
Examination was made on the effect of compound A upon the pain accompanied by viral infection. The mouse HSV infection pain model system on which onset of the pain similar to ZAP including acute phase and chronic phase pains has been reported was used in the evaluation of pain (Takasaki I, et al. Pain 2000; 86: 95-101, Takasaki I, et al. Jpn J. Pharmacol 2000; 83: 319-326, Takasaki I, et al. Anesthesiology 2002; 96: 1168-1174, Sasaki A, et al. Neuroscience 2007; 150: 459-466). Briefly, an area of 5×5 mm of epidermis of the lower part of the right hind leg knee joint of a hairless mouse (HOS: HR-1, female, 7 weeks of age at the time of infection) was scratched with a bundle of ten 27G intracutaneous injection needles, and 1.5×10^5 pfu/10 μL of an HSV-1 virus liquid was added dropwise thereto and spread thereon to be infected. Starting from one day after the infection, the compound A (50 mg/kg) or a solvent (25% Cremophor (registered trademark) EL/25% polyethylene glycol 400 aqueous solution) was orally administered twice a day for 5 days (5 animals each). The skin lesions were classified based on the skin lesion critical degrees and systemic symptoms and scored as from 0 to 7 (cf. the above-mentioned Example 1). […] The pain reaction of this case was evaluated as follows. […]
The pain score of each individual was calculated by averaging six scores. […]

Assay [4] deals with patients who underwent herpes zoster. The assay can be described thus: clinical evaluation of zoster-associated pain / PHN incidence (Numeric pain scale). In kind it is in vivo, human. As to conditions: for PHN incidence rate: pain scale of 3 or more on 91 days after first day of administration. The source says: The effect of compound A to prevent and treat zoster-associate pain in patients who underwent herpes zoster was clinically evaluated by monitoring the presence or absence of pain after administration of the compound A in the following manner. For the purpose, Numeric pain scale (11 points of from 0 (no pain) to 10 (a pain of more than this cannot be considered)) was used in the pain evaluation (Oxman M N, et al. N Engl J Med 2005; 352: 2271-2284).
Under informed consent with the persons themselves, 100 mg, 200 mg or 400 mg of the compound A was taken once a day for 7 days by each of the patients who underwent herpes zoster, and the pain was recorded by them day by day by the Numeric pain scale using a diary. From the diary record, the number of patients having pain scales of 3 or more on 91 days after the first day of drug administration were counted as the cases of PHN onset, and using the ratio based on the all persons to be rested as the PHN incidence rate, the effect of the compound A to prevent PHN was evaluated. As a result, the PHN incidence rate in the group which took 100 mg, 200 mg or 400 mg of the compound A was 2.0% (2 cases in 99 persons), 1.0% (1 case in 97 persons) or 3.2% (3 cases in 95 persons), respectively. Compound A inhibited the onset of PHN in 95% or more of the herpes zoster patients in the clinical evaluation.

The next assay has as its system VZV. As to conditions: reported in Patent References 5 to 8; cited from earlier work.

`Cc1ccc(N(CC(=O)Nc2ccc(-c3cocn3)cc2)C(=O)C2CCS(=O)(=O)CC2)cc1` [N-(4-methylphenyl)-N-(2-{[4-(1,3-oxazol-4-yl)phenyl]amino}-2-oxoethyl)tetrahydro-2H-thiopyran-4-carboxamide 1,1-dioxide]: in assay [1], the in vivo activity entry is reported as “good in vivo activity”.

On to `Cc1cccc(C)c1N(CC(=O)Nc1ccc(-c2ncon2)cc1)C(=O)C1CCS(=O)(=O)CC1` [compound A, N-(2,6-dimethylphenyl)-N-(2-{[4-(1,2,4-oxadiazol-3-yl)phenyl]amino}-2-oxoethyl)tetrahydro-2H-thiopyran-4-carboxamide 1,1-dioxide], for which the “skin lesion score (onset of herpes zoster-like skin lesions)” value with HSV-1 [2] (hairless mouse, HSV-1 dorsal skin infection, 50 mg/kg orally twice a day for 5 days from 1 day after infection, scored day 1-28, FIG. 1) was “inhibited the onset of skin lesions”. In addition, the “right dorsal root ganglion histopathology (degeneration of nerve cell, infiltration of mononuclear cell)” value in the assay with HSV-1 [2] (right dorsal root ganglion at 11 days after infection, HE staining, FIG. 3d) was “inhibited degeneration of nerve cell and infiltration of mononuclear cell”. The “skin histopathology, HE staining (fall off of epidermis, infiltration of mononuclear cells, regeneration of epidermis)” value in the assay on HSV-1 [2] (skin at 11 days after infection, 50 mg/kg orally twice a day for 5 days, FIG. 2b) was “inhibited fall off of epidermis and infiltration of mononuclear cell and accelerated regeneration of epidermis”. In addition, the “PGP 9.5 immunostaining of the skin (nerve ending in epidermis)” value in the assay with HSV-1 [2] (skin at 28 days after infection, versus solvent control group, FIG. 2d) is “inhibition of the reduction of nerve ending”. Also, in the assay on HSV-1 [2] (spinal cord at 11 days after infection, HE staining, FIG. 3b), the “spinal cord histopathology (nerve fiber vacuolization)” value was “protected nerve fiber in the spinal cord”. For the same compound, the “nerve cell degeneration in right dorsal root ganglion, spinal cord right dorsal horn and right hind leg sciatic nerve bundle” value in the assay with HSV-1 [3] (28 days after infection, HE staining, FIG. 5) is “nerve cell degeneration was inhibited”. The “pain score (von Frey hair 0.4 g, infected hind leg)” value with HSV-1 [3] (hairless mouse, HSV-1 hind leg infection, 50 mg/kg orally twice a day for 5 days from 1 day after infection, early stage of onset and complete recovery stage of the lesion, FIG. 4B) is given as “increase of pain score was considerably inhibited”. Moreover, the PHN incidence rate in assay [4] (100 mg once a day for 7 days, 99 persons) is 2.0%; in assay [4] (200 mg once a day for 7 days, 97 persons), 1.0%; in assay [4] (400 mg once a day for 7 days, 95 persons), 3.2%. The “herpes zoster patients in whom onset of PHN was inhibited” value in assay [4] (100, 200 or 400 mg once a day for 7 days, all dose groups) is recorded as at least 95%. For the same compound, the “anti-viral activity on VZV” value with VZV is recorded as “has the anti-viral activity on VZV”. Moreover, in assay [1], the in vivo activity entry was “good in vivo activity”.
